Read-outs that look alike come from different tables or passages of the source.
What was measured:
[1] = system: Akt phosphorylation induced by IGF-1R in HT-29 cells; assay: Western blot analysis of Akt phosphorylation induced by IGF-1R; type: cell-based, Human; details: for phosphorylated AKT levels normalized to actin levels (pAKT/actin): then IGF-1 10 ng/mL 10 min, HT-29
Protocol: Inhibition of Akt phosphorylation induced by IGF-1R was studied by western blot analysis. Human colon carcinoma HT-29 cells were seeded at a density of 8×10^4 cells/well in a 24-well plate and grown in DME/F12 media containing 10% FBS for 24 h. The cells were then depleted of serum by incubation in DME/F12 media lacking FBS for 24 h. […] […] Lysed cells were centrifuged at 13,000 rpm for 15 min and the protein concentration soluble fraction (supernatant) of each sample was determined using a BCA protein assay (Pierce).

IGF1R = IGF1R (Homo sapiens, UniProt P08069); assay: In vitro IGF-1R enzymatic assay (ADP-Glo kinase assay); type: biochemical; design: purchased Millipore 14-802; details: activated IGF-1R, 30 nM
Protocol: IC50 values of the compounds of the invention against IGF-1R and IR were measured in vitro using an ADP-Glo kinase assay Kit (Promega). […] Kinase reactions in both assays were conducted at 30° C. for 20 min with increasing concentrations of compounds of the invention.

[2] = average, read-out: % Inh @ 30 nM Avg
[3] = replicate N1, read-out: % Inh @ 30 nM (N1)
[4] = replicate N2, read-out: % Inh @ 30 nM (N2)

IGF1R, sequence (P08069 31-1367): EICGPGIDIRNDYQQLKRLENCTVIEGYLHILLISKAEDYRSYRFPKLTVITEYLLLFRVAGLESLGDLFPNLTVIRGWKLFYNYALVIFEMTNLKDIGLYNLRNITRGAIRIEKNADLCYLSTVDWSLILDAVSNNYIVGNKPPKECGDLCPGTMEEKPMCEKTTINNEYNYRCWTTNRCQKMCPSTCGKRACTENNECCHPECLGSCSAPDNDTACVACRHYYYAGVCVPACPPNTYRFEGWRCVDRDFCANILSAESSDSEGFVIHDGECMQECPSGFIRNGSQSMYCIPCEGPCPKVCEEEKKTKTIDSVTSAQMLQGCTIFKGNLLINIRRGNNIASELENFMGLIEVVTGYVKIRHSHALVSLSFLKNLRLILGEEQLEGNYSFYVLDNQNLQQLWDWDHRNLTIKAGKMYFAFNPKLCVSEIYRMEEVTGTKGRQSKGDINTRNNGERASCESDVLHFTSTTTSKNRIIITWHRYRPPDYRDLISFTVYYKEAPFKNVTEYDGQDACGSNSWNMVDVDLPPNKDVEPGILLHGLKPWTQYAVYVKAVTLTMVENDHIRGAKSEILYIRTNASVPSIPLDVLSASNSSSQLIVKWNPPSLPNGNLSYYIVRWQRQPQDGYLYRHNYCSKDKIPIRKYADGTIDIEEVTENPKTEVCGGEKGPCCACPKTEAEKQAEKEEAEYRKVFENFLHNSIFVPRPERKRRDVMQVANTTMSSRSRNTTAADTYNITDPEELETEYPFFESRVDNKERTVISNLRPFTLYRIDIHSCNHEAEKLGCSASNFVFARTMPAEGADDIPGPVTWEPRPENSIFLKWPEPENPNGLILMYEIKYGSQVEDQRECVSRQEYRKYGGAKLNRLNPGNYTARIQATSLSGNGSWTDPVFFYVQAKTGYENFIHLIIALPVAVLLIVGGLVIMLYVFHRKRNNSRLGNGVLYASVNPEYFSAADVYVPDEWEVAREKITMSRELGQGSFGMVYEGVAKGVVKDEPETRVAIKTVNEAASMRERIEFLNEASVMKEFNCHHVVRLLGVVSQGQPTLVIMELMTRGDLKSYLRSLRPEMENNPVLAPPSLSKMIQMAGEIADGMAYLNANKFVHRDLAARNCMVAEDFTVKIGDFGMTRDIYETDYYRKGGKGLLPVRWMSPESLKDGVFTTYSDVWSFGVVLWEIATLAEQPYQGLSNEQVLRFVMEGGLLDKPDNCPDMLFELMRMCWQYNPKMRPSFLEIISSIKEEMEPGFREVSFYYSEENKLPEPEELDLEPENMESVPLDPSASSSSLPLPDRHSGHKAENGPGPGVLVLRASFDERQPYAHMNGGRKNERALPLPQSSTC

Compound | phosphorylated AKT levels normalized to actin levels (pAKT/actin) ([1]; 1 nM compound 2 h) | phosphorylated AKT levels normalized to actin levels (pAKT/actin) ([1]; 10 nM compound 2 h) | phosphorylated AKT levels normalized to actin levels (pAKT/actin) ([1]; 100 nM compound 2 h) | phosphorylated AKT levels normalized to actin levels (pAKT/actin) ([1]; 0.1 nM compound 2 h) | also measured
O=C(Nc1ccc(F)nc1)C1CCCN1c1nc2c(c(Nc3cc(C4CC4)[nH]n3)n1)CCC2 (racemic) [Compound 2, 1-(4-(5-cyclopropyl-1H-pyrazol-3-ylamino)-6,7-dihydro-5H-cyclopenta[d]pyrimidin-2-yl)-N-(6-fluoropyridin-3-yl)pyrrolidine-2-carboxamide] | 0.91 | 0.07 | 0.00 | – | –
O=C(Nc1ccc(F)nc1)C1CCCN1c1nc2c(c(Nc3cc(C4CCCC4)[nH]n3)n1)CCC2 (racemic) [Compound 4, 1-(4-(5-cyclopentyl-1H-pyrazol-3-ylamino)-6,7-dihydro-5H-cyclopenta[d]pyrimidin-2-yl)-N-(6-fluoropyridin-3-yl)pyrrolidine-2-carboxamide] | – | – | 0.06 | – | –
O=C(Nc1cnccn1)C1CCCN1c1nc2c(c(Nc3cc(C4CC4)[nH]n3)n1)CCC2 (racemic) [Compound 6, 1-(4-(5-cyclopropyl-1H-pyrazol-3-ylamino)-6,7-dihydo-5H-cyclopenta[d]pyrimidin-2-yl)-N-(pyrazin-2-yl)pyrrolidine-2-carboxamide] | 0.22 | 0.01 | 0.01 | – | Normalized phosphorylated AKT (relative to actin) levels relative to 0.1 nM compound treatment ([1]; 100 nM): 0.0
O=C(Nc1cncnc1)C1CCCN1c1nc2c(c(Nc3cc(C4CC4)[nH]n3)n1)CCC2 (racemic) [Compound 7, 1-(4-(5-cyclopropyl-1H-pyrazol-3-ylamino)-6,7-dihydro-5H-cyclopenta[d]pyrimidin-2-yl)-N-(pyrimidin-5-yl)pyrrolidine-2-carboxamide] | – | – | 1.20 | – | –
O=C(Nc1ccc(F)nc1)C1CCCCN1c1nc2c(c(Nc3cc(C4CC4)[nH]n3)n1)CCC2 (racemic) [Compound 9, 1-(4-(5-cyclopropyl-1H-pyrazol-3-ylamino)-6,7-dihydro-5H-cyclopenta[d]pyrimidin-2-yl)-N-(6-fluoropyridin-3-yl)piperidine-2-carboxamide] | 0.71 | 0.07 | 0.00 | 0.67 | –
O=C(Nc1ccc(F)nc1)C1CCCN1c1nc2c(c(Nc3cc(C4CC4)[nH]n3)n1)CCC2 (single isomer, unassigned) [Compound 2a, 1-(4-(5-cyclopropyl-1H-pyrazol-3-ylamino)-6,7-dihydro-5H-cyclopenta[d]pyrimidin-2-yl)-N-(6-fluoropyridin-3-yl)pyrrolidine-2-carboxamide] | – | – | – | 1.70 | –
O=C(Nc1cccnc1)C1CCCN1c1nc2c(c(Nc3cc(C4CC4)[nH]n3)n1)CCC2 (single isomer, unassigned) [Compound 3b, 1-(4-(5-cyclopropyl-1H-pyrazol-3-ylamino)-6,7-dihydro-5H-cyclopenta[d]pyrimidin-2-yl)-N-(pyridin-3-yl)pyrrolidine-2-carboxamide] | 1.70 | 0.57 | 0.02 | – | –
O=C(Nc1ccc(F)nc1)C1CCCN1c1nc2c(c(Nc3cc(C4CCCC4)[nH]n3)n1)CCC2 (single isomer, unassigned) [Compound 4b, 1-(4-(5-cyclopentyl-1H-pyrazol-3-ylamino)-6,7-dihydro-5H-cyclopenta[d]pyrimidin-2-yl)-N-(6-fluoropyridin-3-yl)pyrrolidine-2-carboxamide] | – | – | 0.20 | – | –
O=C(Nc1cnccn1)C1CCCN1c1nc2c(c(Nc3cc(C4CC4)[nH]n3)n1)CCC2 (single isomer, unassigned) [Compound 6a] | – | 1.40 | – | – | –
O=C(Nc1ccc(F)nc1)C1CCCCN1c1nc2c(c(Nc3cc(C4CC4)[nH]n3)n1)CCC2 (single isomer, unassigned) [Compound 9a, 1-(4-(5-cyclopropyl-1H-pyrazol-3-ylamino)-6,7-dihydro-5H-cyclopenta[d]pyrimidin-2-yl)-N-(6-fluoropyridin-3-yl)piperidine-2-carboxamide] | – | 0.53 | 0.02 | – | –
O=C(Nc1ccc(F)nc1)C1C(O)CCN1c1nc2c(c(Nc3cc(C4CC4)[nH]n3)n1)CCC2 (single isomer, unassigned) [Compound 11a] | – | – | – | – | inhibition at 0.03 µM (IGF1R; [2]): 13%; inhibition at 0.03 µM (IGF1R; [3]): 17%; inhibition at 0.03 µM (IGF1R; [4]): 10%
O=C(Nc1ccc(F)nc1)C1C(O)CCN1c1nc2c(c(Nc3cc(C4CC4)[nH]n3)n1)CCC2 (single isomer, unassigned) [Compound 11b, 1-(4-(5-cyclopropyl-1H-pyrazol-3-ylamino)-6,7-dihydro-5H-cyclopenta[d]pyrimidin-2-yl)-N-(6-fluoropyridin-3-yl)-3-hydroxypyrrolidine-2-carboxamide] | – | – | 0.33 | – | –
CC(C)c1cc(Nc2nc(N3CCCC3C(=O)Nc3ccc(F)nc3)nc3c2CCC3)on1 (single isomer, unassigned) [Compound 12a, N-(6-fluoropyridin-3-yl)-1-(4-(3-isopropylisoxazol-5-ylamino)-6,7-dihydro-5H-cyclopenta[d]pyrimidin-2-yl)pyrrolidine-2-carboxamide] | – | – | – | – | inhibition at 0.03 µM (IGF1R; [2]): 20%; inhibition at 0.03 µM (IGF1R; [3]): 19%; inhibition at 0.03 µM (IGF1R; [4]): 20%
CC(C)c1cc(Nc2nc(N3CCCC3C(=O)Nc3ccc(F)nc3)nc3c2CCCC3)n[nH]1 (single isomer, unassigned) [Compound 13a, N-(6-fluoropyridin-3-yl)-1-(4-(5-isopropyl-1H-pyrazol-3-ylamino)-5,6,7,8-tetrahydroquinazolin-2-yl)pyrrolidine-2-carboxamide] | 0.54 | 0.45 | 0.80 | 0.51 | –
O=C(Nc1ccc(F)nc1)C1CCCN1c1nc2c(c(Nc3cc(C4CC4)[nH]n3)n1)CCCC2 (single isomer, unassigned) [Compound 14a, 1-(4-(5-cyclopropyl-1H-pyrazol-3-ylamino)-5,6,7,8-tetrahydroquinazolin-2-yl)-N-(6-fluoropyridin-3-yl)pyrrolidine-2-carboxamide] | 0.51 | 0.43 | 0.35 | 0.73 | –
O=C(Nc1ccc(F)nc1)C1CCCN1c1nc2c(c(Nc3cc(C4CCCC4)[nH]n3)n1)CCCC2 (single isomer, unassigned) [Compound 15b, 1-(4-(5-cyclopentyl-1H-pyrazol-3-ylamino)-5,6,7,8-tetrahydroquinazolin-2-yl)-N-(6-fluoropyridin-3-yl)pyrrolidine-2-carboxamide] | 0.58 | 0.43 | 0.13 | 0.52 | –
CC(C)c1cc(Nc2nc(N3CCCCC3C(=O)Nc3ccc(F)nc3)nc3c2CCC3)n[nH]1 (single isomer, unassigned) [Compound 16b, N-(6-fluoropyridin-3-yl)-1-(4-(5-isopropyl-1H-pyrazol-3-ylamino)-6,7-dihydro-5H-cyclopenta[d]pyrimidin-2-yl)piperidine-2-carboxamide] | 0.51 | 0.15 | 0.01 | 0.53 | –
O=C(Nc1ccc(F)nc1)C1CCCCN1c1nc2c(c(Nc3cc(C4CCCC4)[nH]n3)n1)CCC2 (single isomer, unassigned) [Compound 17b, 1-(4-(5-cyclopentyl-1H-pyrazol-3-ylamino)-6,7-dihydro-5H-cyclopenta[d]pyrimidin-2-yl)-N-(6-fluoropyridin-3-yl)piperidine-2-carboxamide] | 0.99 | 0.95 | – | 0.83 | –
CC(C)c1cc(Nc2nc(N3CCCC3C(=O)N(C)C)nc3c2CCC3)n[nH]1 (single isomer, unassigned) [Compound 20a, 1-(4-(5-isopropyl-1H-pyrazol-3-ylamino)-6,7-dihydro-5H-cyclopenta[d]pyrimidin-2-yl)-N,N-dimethylpyrrolidine-2-carboxamide] | – | – | – | – | inhibition at 0.03 µM (IGF1R; [2]): 11%
